From PMC2680759, “Non-Invasive Molecular Imaging of Fibrosis Using a Collagen-Targeted Peptidomimetic of the Platelet Collagen Receptor Glycoprotein VI” (PLoS ONE, 2009)
Bridges are numbered along the chain shown (N, C = ends). Where no end group is shown, it is not given here.

Key:
9O12.2 IgG = assay: SPR, 9O12.2 IgG injected over immobilized B-collagelin; assay type: binding; conditions: SPR, peptide reduced by DTT on the sensorchip, IgG 8 µg/ml
Experimental: (§1) 9O12.2 IgG was injected over biotin-peptides coupled to an SA-sensorchip in a Biacore 2000 instrument. […] In some experiments, the peptide was reduced by DTT on the sensor chip before the IgG was injected. Competition experiments were performed by mixing the IgG with recombinant soluble GPVI (25 µg.mL^−1). Collagen binding to the peptide was analyzed by injecting type-I collagen (200 µg.mL^−1) onto the peptide-coated sensorchip. Conversely, biotin-peptides (125, 250, 500 and 1000 µg.mL^−1) were perfused over fibrillar collagen immobilized on a CM5-sensorchip.

vitronectin = molecular target: T1, vitronectin (Rattus norvegicus, UniProt F7F5X0); assay: Solid phase assay, vitronectin; assay type: binding; conditions: biotin-peptide 50 µg/mL, microtitration plate, n = 3
T1 sequence (F7F5X0 20-490): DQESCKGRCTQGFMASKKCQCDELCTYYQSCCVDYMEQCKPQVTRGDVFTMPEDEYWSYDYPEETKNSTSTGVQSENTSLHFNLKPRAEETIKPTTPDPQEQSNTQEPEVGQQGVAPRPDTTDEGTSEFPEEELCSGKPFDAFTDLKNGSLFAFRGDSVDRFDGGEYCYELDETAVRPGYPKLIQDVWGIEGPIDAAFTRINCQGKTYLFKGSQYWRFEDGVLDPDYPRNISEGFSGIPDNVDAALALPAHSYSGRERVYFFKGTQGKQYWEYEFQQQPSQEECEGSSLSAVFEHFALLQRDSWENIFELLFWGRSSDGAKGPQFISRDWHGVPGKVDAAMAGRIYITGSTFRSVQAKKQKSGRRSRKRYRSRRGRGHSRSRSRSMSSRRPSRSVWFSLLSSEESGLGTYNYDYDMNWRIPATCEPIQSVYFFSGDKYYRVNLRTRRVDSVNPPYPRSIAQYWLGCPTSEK
Experimental: Biotin-peptides (50 µg.mL^−1) were incubated on microtitration wells, coated with 1 µg of type-I collagen, convulxin, collagen related peptides, bovine fibrinogen, human fibronectin, rat vitronectin, murine laminin or bovine serum albumin. Bound peptides were detected using HRP-coupled extravidin and the HRP substrate O-phenyl-dianisidine.

[1] = system: collagen rich lesions of fibrotic lungs; assay: Histochemical analysis of healthy and fibrotic lung sections; parameters: species or system mouse; conditions: paraffin embedded lung sections of bleomycin-treated mice, HRP-coupled streptavidin
Experimental: Figure 6 Imaging of lung fibrosis. A: Paraffin embedded sections of lungs from a bleomycin-treated mice were incubated with B-collagelin and detected using HRP-coupled streptavidin. Sections were counter-stained with hematoxylin. Contiguous serial sections were stained with picrosirius red. Representative images are shown. B: Whole body planar scintigraphy of a bleomycin-treated mouse (left) and a control mouse (right). Representative images acquired one hour after the injection of 99mTc-collagelin are shown. C: Corresponding lung autoradiography and histology (picrosirius staining) showing the colocalisation of 99mTc-collagelin with fibrosis. D: Lung autoradiogaphy and histology from a mice treated with the control 99mTc-Pc.

[2] = system: fibrotic myocardial infarction scar; assay type: in vivo, rat; conditions: rat, in vivo
Experimental: Myocardial infarction of the left ventricle was induced in rats as follows. Male Wistar rats (CERJ, France) were housed in a controlled environment and fed with a standard rat chow. Myocardial infarction of the left ventricle was induced by ligature of the left descending coronary artery performed under general anesthesia [1 mL.kg^−1 i.p. ketamine (Imalgene 500, Merial) and 0.5 mL.kg^−1 i.p. xylazine (Rompun, Bayer)] and positive pressure ventilation, as described. This protocol was performed under a permit from the French Veterinary Services Directorate.
Two types of control animals were used: healthy rats, and healthy rats which had undergone a simple throracotomy (sham-operated). ^99mTc-biotin-collagelin blood kinetics and biodistribution were investigated by counting blood samples (taken from a jugular catheter) for 6 h after i.v. injection, and organs (extracted after sacrifice) 2 h after injection in a gamma-counter, together with aliquots of the injected preparation (CobraII, Packard, Meriden, USA). Ex vivo myocardial labeling and isotopic imaging were performed 4 weeks after the coronary ligature (or throracotomy), when the lesions had had the time to heal.
For in vivo experiments, radiotracers (70 MBq) were administered i.v. to anesthetized animals (pentobarbital i.p. 6 mg/100 g BW, Ceva Santé Animale, France) within 2 h of radiolabeling. Scintigraphic images were obtained 0–2 h, 4 h, 6 h, 10 h and 24 h after injecting ^99mTc-streptavidin-biotin peptides and 0–3 h after injecting ^99mTc-biotinylated peptides. Planar and tomographic 1-h acquisitions were performed using a dedicated small animal γIMAGER system (Biospace Lab, Paris, France) equipped with 2 parallel low-energy high-resolution collimators (matrix 128×128, 15% energy window centered on 140 KeV). Tracer uptake in the left cardiac area was assessed visually. Two regions of interest were drawn on the scintigrams, over the heart and over the right lung. The mean activity (cpm) per pixel was determined in each region of interest. Then heart-to-lung activity ratios (HLR) were calculated on both planar and transversal tomographic images.

platelet function = assay: Effect on platelet function; conditions: stated in discussion, no method given
[3] = molecular target: fibrillar type I collagen (Homo sapiens, UniProt P02452+P08123); assay: SPR, biotin-peptides perfused over collagen-coated sensorchip; assay type: binding; conditions: fibrillar type I collagen on CM5-sensorchip
Experimental: as §1

[4] = system: collagen in sections of rat aorta and tail tendon; assay: Histochemical analysis of rat aorta and tail tendon sections; conditions: frozen sections of rat aorta and tail tendon, biotin-peptide 200 µg/mL, HRP-coupled streptavidin
Experimental: Sections were counter-stained with hematoxylin-eosin (Merck). Collagen was stained using picrosirius red. Sections ([…]) of rat tail tendon were processed as above.

[5] = system: collagen fibers of the infarct scars; assay: Post mortem autoradiography of frozen myocardial sections; assay type: in vivo, rat; conditions: 99mTc-streptavidin-coupled peptides
Experimental: After sacrificing the animals, the heart was removed and frozen, then 20-micrometer thick myocardial sections were cut perpendicular to the short axis of the ventricles in a cryostat, and exposed in a radioimager for 16 h. According to calibration studies performed with activity standards of tissue-equivalent homogenates, 50 counts/mm^2 of ^99m Tc-labeled tracers corresponded to ∼210 kBq/mg in autoradiography. The myocardial sections used for autoradiography, and contiguous heart sections (5 µm) fixed in acetone (−20°C), were stained with hematoxylin-eosin, Masson's trichrome and picrosirius red to determine the location and extent of the fibrotic myocardial scarring.

fibrillar type I collagen, sequence (P02452 162-1218 limits assumed): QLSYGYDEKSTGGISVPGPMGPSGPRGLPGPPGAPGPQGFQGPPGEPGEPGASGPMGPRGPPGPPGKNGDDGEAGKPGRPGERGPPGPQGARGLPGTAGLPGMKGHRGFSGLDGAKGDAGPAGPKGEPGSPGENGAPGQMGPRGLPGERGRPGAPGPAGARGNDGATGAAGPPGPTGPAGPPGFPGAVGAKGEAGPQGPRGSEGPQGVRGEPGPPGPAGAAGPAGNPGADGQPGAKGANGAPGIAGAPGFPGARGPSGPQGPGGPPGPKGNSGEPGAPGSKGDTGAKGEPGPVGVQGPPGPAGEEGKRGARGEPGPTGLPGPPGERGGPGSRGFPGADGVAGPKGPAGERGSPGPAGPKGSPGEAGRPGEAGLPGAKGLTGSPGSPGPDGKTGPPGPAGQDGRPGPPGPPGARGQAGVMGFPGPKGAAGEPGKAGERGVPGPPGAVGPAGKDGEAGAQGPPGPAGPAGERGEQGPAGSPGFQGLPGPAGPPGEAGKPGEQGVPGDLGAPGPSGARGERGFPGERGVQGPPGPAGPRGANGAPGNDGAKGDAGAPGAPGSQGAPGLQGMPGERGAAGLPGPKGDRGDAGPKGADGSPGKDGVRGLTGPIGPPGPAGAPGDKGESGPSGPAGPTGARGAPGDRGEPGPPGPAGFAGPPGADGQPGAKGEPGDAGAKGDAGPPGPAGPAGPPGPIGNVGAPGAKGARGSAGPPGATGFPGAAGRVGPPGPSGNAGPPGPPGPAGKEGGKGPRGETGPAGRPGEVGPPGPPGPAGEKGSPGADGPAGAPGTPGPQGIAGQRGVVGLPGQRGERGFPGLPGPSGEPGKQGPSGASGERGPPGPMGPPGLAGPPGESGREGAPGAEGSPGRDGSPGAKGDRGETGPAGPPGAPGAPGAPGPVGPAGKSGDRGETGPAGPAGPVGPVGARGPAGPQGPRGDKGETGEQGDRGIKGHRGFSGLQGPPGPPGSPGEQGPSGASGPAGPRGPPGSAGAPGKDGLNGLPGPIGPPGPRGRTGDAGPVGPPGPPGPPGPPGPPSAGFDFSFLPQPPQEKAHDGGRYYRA
fibrillar type I collagen, sequence (P08123 80-1119 limits assumed): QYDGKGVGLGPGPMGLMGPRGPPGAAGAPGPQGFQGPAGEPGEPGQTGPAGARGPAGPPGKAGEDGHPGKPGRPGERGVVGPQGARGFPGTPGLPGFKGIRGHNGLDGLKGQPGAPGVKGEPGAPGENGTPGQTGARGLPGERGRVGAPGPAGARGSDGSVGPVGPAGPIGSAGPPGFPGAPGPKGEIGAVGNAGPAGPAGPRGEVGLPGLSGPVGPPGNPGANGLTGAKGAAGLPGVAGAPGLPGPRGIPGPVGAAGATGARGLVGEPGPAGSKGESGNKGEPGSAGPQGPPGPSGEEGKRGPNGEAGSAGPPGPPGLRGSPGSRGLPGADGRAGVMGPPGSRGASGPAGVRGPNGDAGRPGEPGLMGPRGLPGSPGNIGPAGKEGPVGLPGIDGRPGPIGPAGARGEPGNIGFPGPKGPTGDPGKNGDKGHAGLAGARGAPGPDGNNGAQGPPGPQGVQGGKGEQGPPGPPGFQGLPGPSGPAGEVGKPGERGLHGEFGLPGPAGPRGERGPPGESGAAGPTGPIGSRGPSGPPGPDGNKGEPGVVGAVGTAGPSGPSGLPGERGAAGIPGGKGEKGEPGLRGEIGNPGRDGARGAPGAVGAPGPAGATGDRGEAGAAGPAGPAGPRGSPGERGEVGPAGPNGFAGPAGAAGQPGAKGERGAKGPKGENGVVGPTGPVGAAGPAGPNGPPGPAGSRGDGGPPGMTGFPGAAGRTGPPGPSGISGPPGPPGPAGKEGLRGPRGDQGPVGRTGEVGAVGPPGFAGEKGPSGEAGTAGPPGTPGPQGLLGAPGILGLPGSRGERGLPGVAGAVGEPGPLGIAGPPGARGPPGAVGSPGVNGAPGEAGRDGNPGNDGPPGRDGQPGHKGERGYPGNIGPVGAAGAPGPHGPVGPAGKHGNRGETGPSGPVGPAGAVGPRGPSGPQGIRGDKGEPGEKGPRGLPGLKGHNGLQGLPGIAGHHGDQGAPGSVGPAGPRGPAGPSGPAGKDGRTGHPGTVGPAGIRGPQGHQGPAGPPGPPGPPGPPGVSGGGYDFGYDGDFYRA

In the case of `CSCC[C@@H]1NC(=O)[C@H](C(C)C)NC(=O)[C@H](CCCNC(=N)N)NC(=O)CNC(=O)[C@@H]2CCCN2C(=O)[C@@H](NC(=O)CNC(=O)[C@H](CO)NC(=O)CNC(=O)[C@H](CO)NC(=O)CCCC[C@@H]2SC[C@@H]3NC(=O)N[C@@H]32)CSSC[C@@H](C(N)=O)NC(=O)[C@@H]2CCCN2C(=O)CNC(=O)[C@H](CCC(=O)O)NC(=O)[C@H](CC(=O)O)NC(=O)[C@H](CC(=O)O)NC(=O)CNC(=O)[C@H](CC(C)C)NC(=O)[C@H](Cc2c[nH]cn2)NC(=O)[C@H](CC(C)C)NC(=O)CNC(=O)[C@H](Cc2c[nH]cn2)NC1=O` [collagelin], the “Binding of 9O12.2 IgG to reduced collagelin” value (9O12.2 IgG) is reported as “did not bind”, the “Binding to immobilized vitronectin” value (vitronectin) is reported as “either to be weak or not to occur at all” and the “Histochemical staining of lung sections” value [1] is reported as “coincided with the collagen rich lesions”. The “Accumulation of the tracer in the skin of the animals” value [2] was “did not notice any accumulation”, the “Uptake in bone marrow” value [2] was “low level” and the “Effect on platelet function” value (platelet function) was “no effect”.

With “SGSGCGPQGARGLTGASAGGPC (disulfide 5-22 (inferred)) [reference compound]” the “Binding to collagen-coated sensorchip” value [3] was “did not bind”, the “Binding to immobilized vitronectin” value (vitronectin) was “did not bind” and the “Histochemical staining of tissue collagen” value [4] was “not”. The “Autoradiographic labeling of the infarct scar” value ([5]; frozen myocardium sections 6-8 hours after injection) was “little or no uptake” and the “Mean infarct-to-remote myocardium radioactivity ratio” value ([5]; rats with MI, mean±SEM, p<0.006) was 1.82±0.32.
